The target in experiment [1] is T1, δ-opioid receptor (Mus musculus, UniProt P32300). The experiment is described as follows: [35S]GTPγS δ-opioid receptor functional assay (EC50, relative efficacy, % inhibition). It counts as biochemical. On the set-up: NG108-15 cell membranes were purchased from Applied Cell Sciences (Rockville, Md.). As to conditions: for inhibition at 10 µM: read-out: GTPγS δ-opioid receptor % Inh @10 μM.

Experiment [2] has as its target T2, Delta Opioid Receptor (Rattus norvegicus, UniProt P33533).
T2 construct: the forebrains were homogenized in Tris buffer in a Teflon®-glass homogenizer; from tissue; host or cells: forebrain of male Wistar rats, particulate membrane preparation
The experiment is described as follows: Rat brain delta opioid receptor binding assay ([3H]DPDPE or [3H]naltrindole).

A further experiment deals with T3, Mu Opioid Receptor (Rattus norvegicus, UniProt P33535).
T3 construct: the forebrains were homogenized in Tris buffer in a Teflon®-glass homogenizer; from tissue; host or cells: forebrain of male Wistar rats, particulate membrane preparation
Briefly: Rat brain mu opioid receptor binding assay ([3H]DAMGO).

For another experiment, the system named is mice. The experiment is described as follows: Mouse Graded Abdominal Irritant Test (GrAIT). It counts as in vivo. The settings on record: 10% Solutol, 30 min pretreatment. The method, then:
Test compound or vehicle was administered s.c. or p.o. to mice. Following the pretreatment time, an i.p. injection of 0.6% of acetic acid in 0.5 mL was administered. Five min after acetic acid administration, mice were placed into clear chambers and were continuously observed for 5 min. Behavioral responses including twisting and elongation of the body that extended through the hindlimbs were counted and averaged for the group of animals over the observation period.

In experiment [3] the target is T1, δ-opioid receptor. The experiment is described as follows: [35S]GTPγS binding assay in NG108-15 cell membranes (delta opioid functional assay), 200 nM screen. It is filed as biochemical. Also noted: NG108-15 cell membranes were purchased from Applied Cell Sciences (Rockville, Md.); host or cells: NG108-15 cell membranes (purchased). The settings on record: 200 nM compound, relative to calculated max of SNC80 dose response.

For experiment [4], the target named is T4, Delta Opioid Receptor (Mus musculus, UniProt P32300).
T4 construct: NG108-15 cell membranes were purchased from Applied Cell Sciences (Rockville, Md.); host or cells: NG108-15 cell membranes (purchased)
Briefly: NG108-15, 24-well delta opioid receptor binding assay ([3H]naltrindole).

Where [5] appears, read: rat forebrain membranes, ~4 nM [3H]DPDPE, read-out: δ-binding (DPDPE ligand) Ki.
Setting [6] is: rat forebrain membranes, ~0.8 nM [3H]DAMGO, read-out: μ-binding Ki.
Where [7] appears, read: read-out: GTPγS δ-opioid receptor EC50.
Where [8] appears, read: rat forebrain membranes, 0.25 nM [3H]naltrindole, read-out: δ-binding (Naltrindole ligand) Ki.
The mark [9] stands for this setting: NG108-15 cell membranes, ~0.2 nM [3H]naltrindole, read-out: δ-binding NG108 cell membrane Ki.

Consider 23 molecules from US20110269759A1, “PYRIMIDINE COMPOUNDS AS DELTA OPIOID RECEPTOR MODULATORS” (priority 2009, published 2011).

Where two headings read alike, the source gives them in different places.

T2 sequence (P33533 whole entry): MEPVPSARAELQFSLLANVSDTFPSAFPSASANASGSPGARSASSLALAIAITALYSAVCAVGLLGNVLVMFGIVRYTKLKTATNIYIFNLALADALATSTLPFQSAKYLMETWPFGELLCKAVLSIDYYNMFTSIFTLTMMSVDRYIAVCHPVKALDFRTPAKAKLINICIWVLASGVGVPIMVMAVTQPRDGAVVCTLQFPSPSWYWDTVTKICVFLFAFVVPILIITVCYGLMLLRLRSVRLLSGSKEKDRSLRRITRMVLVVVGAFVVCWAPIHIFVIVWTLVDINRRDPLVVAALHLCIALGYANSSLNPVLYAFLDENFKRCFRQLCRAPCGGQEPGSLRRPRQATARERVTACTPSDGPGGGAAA
T1 sequence (P32300 whole entry): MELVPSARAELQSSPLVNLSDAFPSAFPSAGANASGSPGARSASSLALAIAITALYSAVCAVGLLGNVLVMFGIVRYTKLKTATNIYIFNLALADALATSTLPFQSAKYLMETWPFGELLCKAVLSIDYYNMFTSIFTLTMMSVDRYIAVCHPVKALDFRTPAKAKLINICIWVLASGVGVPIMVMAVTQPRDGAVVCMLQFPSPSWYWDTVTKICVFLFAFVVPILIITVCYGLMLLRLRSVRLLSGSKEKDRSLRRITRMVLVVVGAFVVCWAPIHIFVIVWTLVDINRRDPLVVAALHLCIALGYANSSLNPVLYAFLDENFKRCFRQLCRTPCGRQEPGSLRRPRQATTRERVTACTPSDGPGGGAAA
T4 sequence (P32300 whole entry): as above
T3 sequence (P33535 whole entry): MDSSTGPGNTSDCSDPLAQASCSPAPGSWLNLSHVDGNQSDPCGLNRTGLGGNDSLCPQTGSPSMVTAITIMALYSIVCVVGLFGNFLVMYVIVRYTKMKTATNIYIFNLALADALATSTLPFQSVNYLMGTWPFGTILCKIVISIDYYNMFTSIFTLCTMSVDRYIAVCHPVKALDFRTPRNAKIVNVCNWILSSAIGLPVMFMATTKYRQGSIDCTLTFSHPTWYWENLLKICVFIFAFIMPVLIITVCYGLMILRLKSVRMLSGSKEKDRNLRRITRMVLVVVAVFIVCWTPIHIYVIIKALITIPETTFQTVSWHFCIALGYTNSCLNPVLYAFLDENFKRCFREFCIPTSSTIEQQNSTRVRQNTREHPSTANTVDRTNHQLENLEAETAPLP

Consider `COc1ccc(Oc2ccc(NCC3CCCNC3)c(Oc3ccc(OC)cc3)c2)cc1` (racemic) [Cpd 61], for which, on δ-opioid receptor [1], it took 4.07 µM to reach a half-maximal effect (EC50) and the inhibition at 10 µM was 16.1%. The Ki at Delta Opioid Receptor [2] (setting [5]) amounted to 0.111 µM. Besides, the Ki at Mu Opioid Receptor (setting [6]) is more than 10 µM.
Regarding `CCN(CC)C(=O)/C=C/c1ccc(NC[C@@H]2CCCN2)c(Oc2ccc(OC)cc2)c1` [Cpd 1, (2E)-N,N-Diethyl-3-[3-(4-methoxyphenoxy)-4-{[(2S)-pyrrolidin-2-ylmethyl]amino}phenyl]prop-2-enamide], at δ-opioid receptor [1], the EC50 stood at 0.109 µM, the “GTPγS δ-opioid receptor Rel Efficacy” value is given as 0.8328 and the inhibition at 10 µM turned out to be 2.26%. For the same molecule, at Delta Opioid Receptor [2], the affinity, expressed as Ki, was 0.00608 µM. For the same molecule, on Mu Opioid Receptor, the Ki is 3.37 µM. Besides, the “# abdominal stretches (cpd)” value in the experiment on mice (30 mg/kg s.c.) came out at 10.9.
As to `CCN(CC)C(=O)CCc1ccc(NC[C@@H]2CCCN2)c(Oc2ccc(OC)cc2)c1` [Cpd 2, N,N-Diethyl-3-[3-(4-methoxyphenoxy)-4-{[(2S)-pyrrolidin-2-ylmethyl]amino}phenyl]propanamide], the “GTPγS δ-opioid receptor Rel Efficacy” value on δ-opioid receptor [1] is 0.8333. Besides, the inhibition at 10 µM at δ-opioid receptor [1] was determined as 22.8%. Besides, the EC50 at δ-opioid receptor [1] (setting [7]) is 0.0391 µM. Besides, the inhibition constant (Ki) on Delta Opioid Receptor [2] (setting [8]) is 0.0264 µM; at Mu Opioid Receptor (setting [6]), more than 100 µM.
Take `CCN(CC)C(=O)c1ccc(NC[C@@H]2CCCN2)c(Oc2ccc(OC)cc2)c1` [Cpd 10]: the Ki on Delta Opioid Receptor [2] (setting [8]) and at Mu Opioid Receptor was 0.936 µM in each case. Further, the “# abdominal stretches (cpd)” value with mice (30 mg/kg p.o.) amounted to 19; in the experiment on mice (30 mg/kg s.c.) it was 11; in the experiment with mice (100 mg/kg p.o.), 17.9; in the experiment on mice (300 mg/kg p.o.) it was 21.2.
As for `COc1ccc(Oc2cc(-c3cncc(C#N)c3)ccc2NC[C@@H]2C[C@@H](F)CN2)cc1` [Cpd 24, (2S,4R)-5-[4-[(4-Fluoro-pyrrolidin-2-ylmethyl)-amino]-3-(4-methoxy-phenoxy)-phenyl]-nicotinonitrile], on δ-opioid receptor [1], the concentration for a half-maximal effect (EC50) is 0.0461 µM and the “GTPγS δ-opioid receptor Rel Efficacy” value is listed as 1.0158. At δ-opioid receptor [3], the “GTPγS δ-RelEfficacy @200 nM” value is listed as 1.01.
For `COc1ccc(Oc2cc(-c3cncc(F)c3)ccc2NC[C@@H]2C[C@@H](F)CN2)cc1` [Cpd 25], at δ-opioid receptor [1], the EC50 was 0.0924 µM and the “GTPγS δ-opioid receptor Rel Efficacy” value is 1.0217. At δ-opioid receptor [3], the “GTPγS δ-RelEfficacy @200 nM” value is listed as 0.78.
For `COc1ccc(Oc2cc(-c3cncc(SC)c3)ccc2NC[C@@H]2C[C@@H](F)CN2)cc1` [Cpd 26] the same measures were 0.187 µM, 1.0716 and 0.7.
For the molecule `COc1ccc(Oc2cc(-c3cncc(C)c3)ccc2NC[C@@H]2C[C@@H](F)CN2)cc1` [Cpd 28], at δ-opioid receptor [1], the concentration giving a half-maximal response (EC50) came out at 0.165 µM. The “GTPγS δ-opioid receptor Rel Efficacy” value on δ-opioid receptor [1] was found to be 0.8756. For the same molecule, the Ki on Delta Opioid Receptor [2] was determined as 0.00681 µM; on Mu Opioid Receptor, 4.67 µM.
With `NC(=O)c1cccc(Oc2cc(-c3ccccc3)ccc2NC[C@@H]2CCCN2)c1` [Cpd 30], on δ-opioid receptor [1], the EC50 was 1.02 µM, the “GTPγS δ-opioid receptor Rel Efficacy” value worked out at 0.2668 and the inhibition at 10 µM stood at 36.5%. Further, the Ki on Delta Opioid Receptor [2] (setting [8]) is 0.127 µM. On Mu Opioid Receptor, this molecule displayed a Ki of 5.8 µM.
As to `COc1ccc(Oc2cc(-c3ccccc3)ccc2NC[C@@H]2CCCN2)cc1` [Cpd 35, (S)-[3-(4-Methoxy-phenoxy)-biphenyl-4-yl]-pyrrolidin-2-ylmethyl-amine], on δ-opioid receptor [1], the inhibition at 10 µM came out at 1%. In addition, the Ki at Delta Opioid Receptor [2] is 0.0289 µM; on Mu Opioid Receptor (read-out: μ-binding Ki), more than 10 µM.
With `COc1ccc(Oc2cc(-c3cccnc3)ccc2NC[C@@H]2CCCN2)cc1` [Cpd 39], at δ-opioid receptor [1], the half-maximal effective concentration (EC50) came to 0.111 µM, the “GTPγS δ-opioid receptor Rel Efficacy” value is on record as 0.9245 and the inhibition at 10 µM was 13.4%. In addition, the affinity on Delta Opioid Receptor [2], expressed as Ki, was 0.0221 µM. In addition, affinity at Mu Opioid Receptor was put at a Ki of 3.11 µM. Further, the affinity on Delta Opioid Receptor [4], expressed as Ki, was 0.00165 µM.
Consider `COc1ccc(Oc2cc(-c3cncnc3)ccc2NC[C@@H]2CCCN2)cc1` [Cpd 42], for which the Ki on Delta Opioid Receptor [4] (setting [9]) was 0.00139 µM. The “GTPγS δ-RelEfficacy @200 nM” value on δ-opioid receptor [3] is given as 0.39.
For the molecule `COc1ccc(Oc2cc(-c3cncc(F)c3)ccc2NC[C@@H]2CCCN2)cc1` [Cpd 43], on δ-opioid receptor [1], the EC50 was determined as 0.218 µM and the “GTPγS δ-opioid receptor Rel Efficacy” value is listed as 1.0908. This molecule registered a Ki on Delta Opioid Receptor [4] of 0.00076 µM. Also, the “GTPγS δ-RelEfficacy @200 nM” value on δ-opioid receptor [3] is recorded as 0.43.
For `COc1ccc(Oc2cc(-c3cncc(C#N)c3)ccc2NC[C@@H]2CCCN2)cc1` [Cpd 44], the “GTPγS δ-opioid receptor Rel Efficacy” value at δ-opioid receptor [1] was 1.1554. Further, at δ-opioid receptor [1] (setting [7]), the EC50 was found to be 0.118 µM. The Ki at Delta Opioid Receptor [4] (setting [9]) stood at 0.000436 µM. Also, at δ-opioid receptor [3], the “GTPγS δ-RelEfficacy @200 nM” value was 0.45.
With `Oc1ccc(Oc2cc(-c3cccnc3)ccc2NC[C@@H]2CCCN2)cc1` [Cpd 45, (S)-4-{5-Pyridin-3-yl-2-[(pyrrolidin-2-ylmethyl)-amino]-phenoxy}-phenol], on δ-opioid receptor [1], the EC50 worked out at 0.0408 µM, the “GTPγS δ-opioid receptor Rel Efficacy” value amounted to 0.627 and the inhibition at 10 µM stood at 35.6%. This molecule also displayed a Ki at Delta Opioid Receptor [2] of 0.00542 µM. At Mu Opioid Receptor, this molecule returned a Ki of 4.46 µM.
On to `CCN(C[C@@H]1CCCN1)c1ccc(-c2cccnc2)cc1Oc1ccc(OC)cc1` [Cpd 49, (S)-Ethyl-[2-(4-methoxy-phenoxy)-4-pyridin-3-yl-phenyl]-pyrrolidin-2-ylmethyl-amine], for which the Ki at Delta Opioid Receptor [4] (setting [9]) was 0.029 µM.
As to `CCN(C[C@@H]1CCCN1)c1ccc(-c2cncc(F)c2)cc1Oc1ccc(OC)cc1` [Cpd 50], the Ki at Delta Opioid Receptor [4] is 0.023 µM.
On to `CCN(C[C@@H]1CCCN1)c1ccc(-c2cncnc2)cc1Oc1ccc(OC)cc1` [Cpd 51], for which the Ki at Delta Opioid Receptor [4] (setting [9]) is 0.077 µM.
Consider `CCN(C[C@@H]1CCCN1)c1ccc(-c2cncc(C#N)c2)cc1Oc1ccc(OC)cc1` [Cpd 52], for which the Ki on Delta Opioid Receptor [4] was 0.00933 µM.
Take `COc1ccc(Oc2ccc(NC[C@@H]3CCCN3)c(Oc3ccc(OC)cc3)c2)cc1` [Cpd 53, (S)-[2,4-Bis-(4-methoxy-phenoxy)-phenyl]-pyrrolidin-2-ylmethyl-amine]: on δ-opioid receptor [1], the EC50 worked out at 0.319 µM and the inhibition at 10 µM was found to be 28.2%. For the same molecule, on Delta Opioid Receptor [2] (setting [5]), the Ki worked out at 0.105 µM. For the same molecule, the inhibition constant (Ki) on Mu Opioid Receptor (setting [6]) is more than 10 µM.
Turning to `COc1ccc(Oc2ccc(NC3CCCC(N)C3)c(Oc3ccc(OC)cc3)c2)cc1` (centres unmarked) [Cpd 62], on δ-opioid receptor [1], the EC50 came out at 0.381 µM and the inhibition at 10 µM amounted to 1.73%. Besides, at Delta Opioid Receptor [2], the Ki is 0.0409 µM. Besides, affinity on Mu Opioid Receptor was put at a Ki of 1.64 µM.
Consider `CNCCNc1ccc(Oc2ccc(OC)cc2)cc1Oc1ccc(OC)cc1` [Cpd 63, N-[2,4-Bis-(4-methoxy-phenoxy)-phenyl]-N′-methyl-ethane-1,2-diamine], for which the inhibition at 10 µM at δ-opioid receptor [1] stood at 26%. In addition, the Ki at Delta Opioid Receptor [2] is 0.0237 µM; on Mu Opioid Receptor (read-out: μ-binding Ki), more than 10 µM.
With `CNCCN(CCNC)c1ccc(Oc2ccc(OC)cc2)cc1Oc1ccc(OC)cc1` [Cpd 64, N-[2,4-Bis-(4-methoxy-phenoxy)-phenyl]-N′-methyl-N-(2-methylamino-ethyl)-ethane-1,2-diamine], the figures for the Ki at Delta Opioid Receptor [2] (setting [5]) and at Mu Opioid Receptor (setting [6]) were 1.54 µM and more than 10 µM, respectively.

What is called EC50 is the concentration giving half of the maximal effect. Usually Ki stands for the dissociation constant of the complex between target and ligand, obtained from inhibition or displacement.
